According to patent US10968214B2, “KRas G12C inhibitors” (Eli Lilly and Company, priority 2018, dated 2021):
“And” between values parts separate entries of the source, which are not always exact repeats. Identical values can stand only once. Like-named read-outs stand apart in the source and are kept apart here.

What was measured:
SW756 = experiment: CellTiterGlo Cell Proliferation Assay, SW756; type: cell-based; settings: Homo sapiens, KRas G12C, Cervix, 96 hr
Method: (§1) A panel of tumor cell lines harboring KRas G12C or other KRas mutations are collected (Table 6). All cell lines are from ATCC or other sources indicated.
(§2) Typically cells are cultured in RPMI1640 or Dulbecco's modified Eagle's medium (DMEM, GIBCO) supplemented with 10% FBS (GIBCO, Invitrogen). For 2D culture cells (4×10^3/well) maintained in growth medium described above, are plated onto 96 well tissue culture plates Corning® Cat. 3603) a day before the treatment. For 3D culture 8000 cells/well are seeded onto 96 well ultra-low attachment tissue culture plates (Corning, #3474). The cells are treated compound for 96 hr, and then are analyzed for viability using the CellTiterGlo® Luminescent Cell Viability Assay® (Promega #G7572 for 2D and Promega #G9683 for 3D cultures) according to manufacturer's instructions and an EnVision™ plate reader. Nonlinear regression and sigmoidal dose-response curves are used to calculate the half maximal inhibitory concentration (IC50) with GraphPad Prism 4® software.

EL3187 (PDX) = experiment: Anti-tumor growth activity, EL3187 lung PDX; type: in vivo; settings: for Tumor Growth Inhibition (%) or Regression (−%): EL3187 (PDX) Lung, 28 Day, negative = regression
H358 xenograft = experiment: Anti-tumor growth activity, lung cancer H358 xenograft mouse model; type: in vivo; settings: for Tumor Growth Inhibition (%) or Regression (−%): 28 Day, negative = regression
Method: To evaluate in vivo target inhibition and anti-tumor efficacy of a compound, Human lung cancer cells, H358 or H2122 are implanted into nude mice xenograft tumor models. Either H358 or H2122 cells (10×10^6 in a 1:1 Matrigel® mix, 0.2 mL total volume) are implanted by subcutaneous injection in hind leg of nude female mice (Harlan Laboratories). A total of 5 mice each group are used for efficacy study, and a total of 3-4 mice each group are used for target engagement and PD study. Treatment is initiated with oral administration (gavage) of a test compound or vehicle (20% Captisol®, 25 mM phosphate, pH 2.0 in 0.2 mL volume when the tumor size reaches approximately […]. Tumor growth and body weight are monitored over time to evaluate efficacy and signs of toxicity. Bidimensional measurements of tumors are performed twice a week and tumor volumes are calculated based on mid-axis length and mid-axis width. Tumor volume data are transformed to a log scale to equalize variance across time and treatment groups. The log volume data are analyzed with a two-way repeated measures analysis of variance by time and treatment using the mixed procedures in SAS software (version 8.2). The correlation model for the repeated measures is spatial power. Treated groups are compared to the control group at each time point. The mixed procedure is also used separately for each treatment group to calculate adjusted means and standard errors at each time point. Both analyses account for the autocorrelation within each animal. The adjusted means and standard errors are plotted for each treatment group versus time.
H358 lung tumor cells (10×10^6) are implanted by subcutaneous injection in hind leg of nude female mice (Taconic Biosciences).

Calu-1 [1] = experiment: Combination 4 day growth assay (Cell TiterGlo), Calu-1; type: cell-based; settings: Homo sapiens, Calu-1, 96 h, single treatment, read-out: Absolute IC50
Method: Cell lines for this study are obtained from ATCC and grown under ATCC recommended conditions, except for LXFA-983L, which is obtained from Oncotest/Charles Rivers Laboratories, Wilmington, Mass. and D122-96, which is obtained from L. Eisenbach (Weizman Institute of Science, Rehovot, Israel)—both grown under recommended conditions. […] The proliferation assay is performed as a 4 day growth assay using Cell TiterGlo® as the readout. Briefly, cells are plated in 96-well cell culture plates and allowed to adhere overnight at 37° C. The following day, cells are treated with compounds, either single treatments or combination treatments. First, the testing compounds are serially diluted in DMSO, followed by dilution into media as a 5× concentration with 1% DMSO, and finally added to cells in media to dilute to 1×. The cells are incubated at 37° C. for 4 more days. At the end of the incubation period, Cell TiterGlo® reagent is mixed and added to the wells. After 10 minutes, the luminescence is read by a Perkin Elmer Envision instrument. Absolute IC50 values generated by a 4-parameter logistics model for the single and combination treatments are generated, followed by combination indexes for each combination treatment and cell line. The combination IC50 values are adjusted based on the total concentration of each compound when added together. […] The combination index (CI) measures the degree to which the potency of a combination therapy differs from the expected-if-additive potency and is based on the Loewe definition of additivity.
[formula] Where • CAy and CBy are the concentrations of therapies A and B that produce an effect, y, when given in combination • ICAy and ICBy are the concentrations of A and B that produce an effect, y, when given individually The biological interpretation of the combination index is as follows: synergistic if the combination index <0.5, additive if the combination index is between 0.5 and 2, and antagonistic if the combination index is >2.

MiaPaca-2 xenograft = experiment: Anti-tumor growth activity, MiaPaca-2 pancreatic xenograft; type: in vivo; settings: for Tumor Growth Inhibition (%) or Regression (−%): 28 Day, negative = regression
Calu-1 [2] = experiment: CellTiterGlo Cell Proliferation Assay, Calu-1; type: cell-based; settings: Homo sapiens, KRas G12C, Lung, 96 hr
Method: as §1, §2

EL2661 (PDX) = experiment: Anti-tumor growth activity, EL2661 lung PDX; type: in vivo; settings: 28 Day, negative = regression
[3] = read-out: IC50 (μM) in 2 D cell proliferation
[4] = read-out: IC50 (μM) in 3 D spheroid cell proliferation

For `C=CC(=O)N1CCN(c2ncnc3c(F)c(-c4ccc(F)c5sc(N)nc45)c(Cl)cc23)CC1` [Example 1, 1-{4-[7-(2-Amino-7-fluoro-1,3-benzothiazol-4-yl)-6-chloro-8-fluoroquinazolin-4-yl]piperazin-1-yl}prop-2-en-1-one], the IC50 (SW756; [3]) was 1.15 µM, the IC50 (SW756; [4]) was 7.83 µM and the “Tumor Growth Inhibition (%) or Regression (−%)” value (“Tumor Growth Inhibition … (−%)” below) (EL3187 (PDX); 5 mg/kg BID) was −65%. The “Tumor Growth Inhibition … (−%)” value (EL3187 (PDX); 5 mg/kg QD) was 94%, the “Tumor Growth Inhibition … (−%)” value (EL3187 (PDX); 15 mg/kg BID) was −80% and the “Tumor Growth Inhibition … (−%)” value (EL3187 (PDX); 15 mg/kg QD) was −75%. For the same compound, the “Tumor Growth Inhibition … (−%)” value (EL3187 (PDX); 30 mg/kg BID, 30 mg/kg) was −100% and −92.5%, the “Tumor Growth Inhibition … (−%)” value (EL3187 (PDX); 100 mg/kg BID) was −100% and the “Tumor Growth Inhibition … (−%)” value (EL3187 (PDX); 100 mg/kg QD) was −100%. For the same compound, the “In Vivo Anti-Tumor Activities” value (EL3187 (PDX); EL3187 Lung PDX, Example 1 5 mg/kg QDx28) was 94.8, the “Tumor Growth Inhibition … (−%)” value (H358 xenograft; H358 Lung, 10 mg/kg BID, oral) was −1.98% and the “Tumor Growth Inhibition … (−%)” value (H358 xenograft; H358 Lung, 10 mg/kg QD, oral) was 42.7%. The “Tumor Growth Inhibition … (−%)” value (H358 xenograft; H358 Lung, 30 mg/kg BID, oral) was −74.35%, the “Tumor Growth Inhibition … (−%)” value (H358 xenograft; H358 Lung, 30 mg/kg QD, oral) was −33.98% and the “In Vivo Anti-Tumor Activities” value (H358 xenograft; H358 Lung, Example 1 30 mg/kg QDx28) was −33.4. The “animal body weight loss” value (H358 xenograft; H358 xenograft mice, 10 or 30 mg/kg once or twice daily for 28 days, oral) was “No significant animal body weight loss was observed”, the IC50 (Calu-1 [1]) was 14.5 nM and the “Tumor Growth Inhibition … (−%)” value (MiaPaca-2 xenograft; 10 mg/kg BID) was 75.48%. The “Tumor Growth Inhibition … (−%)” value (MiaPaca-2 xenograft; 10 mg/kg QD) was 44.4%, the “Tumor Growth Inhibition … (−%)” value (MiaPaca-2 xenograft; 30 mg/kg BID) was −49.6% and the “Tumor Growth Inhibition … (−%)” value (MiaPaca-2 xenograft; 30 mg/kg QD) was 95.6%. The “In Vivo Anti-Tumor Activities” value (MiaPaca-2 xenograft; Example 1 30 mg/kg QDx28) was 91.22, the IC50 (Calu-1 [2]; [3]) was 0.024 µM and the IC50 (Calu-1 [2]; [4]) was 0.001 µM. For the same compound, the “Tumor Growth Inhibition … (−%)” value (EL2661 (PDX); 10 mg/kg QD) was 46.5%, the “Tumor Growth Inhibition … (−%)” value (EL2661 (PDX); 20 mg/kg QD) was 58.6% and the “Tumor Growth Inhibition … (−%)” value (EL2661 (PDX); 30 mg/kg QD) was 97.6%. The “Tumor Growth Inhibition … (−%)” value (EL2661 (PDX); 50 mg/kg QD) was −8.6%.
